What all share (type): biochemical
For assay [1], the target named is T1, PI3Kalpha (Homo sapiens, UniProt P42336).
T1 construct: His6 (C); made in house; host or cells: baculovirus / Tn5 insect cells
Briefly: PI3K KinaseGlo assay, PI3Kalpha. The following applies: 1 μM ATP, 10 nM enzyme, 30 mins. (In general: In Kinase-Glo more light means more ATP remaining.)

Assay [2] concerns the target T2, PI3Kgamma (Homo sapiens, UniProt P48736, Q459R).
T2 construct: Constructs lacking the N-terminal 144 aa; His6 (C); made in house; host or cells: Tn5 insect cells; construct from Roger Williams lab (MRC LMB)
Put plainly: PI3K KinaseGlo assay, PI3Kgamma. The following applies: 1 μM ATP, 150 nM enzyme, 90 mins. How it is done: PI3K KinaseGlo assay: […] of compound dilutions were dispensed onto black 384-well low volume Non Binding Styrene (NBS) plates (Costar Cat. No. NBS#3676). L-a-phosphatidylinositol (PI), provided as 10 mg/ml solution in methanol, was transferred into a glass tube and dried under nitrogen beam. It was then resuspended in 3% OctylGlucoside (OG) by vortexing and stored at 4° C. The KinaseGlo Luminescent Kinase Assay (Promega, Madison/WI, USA) is a homogeneous HTS method of measuring kinase activity by quantifying the amount of ATP remaining in solution following a kinase reaction.
5 μL of a mix of PI/OG with the PI3K subtype were added (Table 1). Kinase reactions were started by addition of 5 μl of ATP-mix containing in a final volume 10 μL 10 mM TRIS-HCl pH 7.5, 3 mM MgCl2, 50 mM NaCl, 0.05% CHAPS, 1 mM DTT and 1 μM ATP, and occurred at room temperature. Reactions were stopped with 10 μl of KinaseGlo and plates were read 10 mins later in a Synergy2 reader using an integration time of 0.1 seconds per well. […] The standard was used as a reference compound and included in all assay plates in the form of 16 dilution points in duplicate.
The PI3Kα, PI3Kβ and PI3Kδ constructs are fusion of p85α iSH2 domain and the respective p110 isoforms. The p85α fragment and p110 isoform genes were generated by PCR from first strand cDNA generated by RT-PCR from commercial RNA from placenta, testis and brain as described below. […]
The lysate was centrifuged at 45,000 g for 30 minutes, and the supernatant was loaded onto a pre-equilibrated IMAC column (3 mL resin/100 mL lysate). […] Pertinent fractions were analyzed by SDS-PAGE and pooled accordingly. […] Pertinent fractions were analyzed by SDS-PAGE and pooled accordingly. […]

Assay [3] concerns the target T3, PI3Kbeta (Homo sapiens, UniProt P42338).
T3 construct: p85α iSH2 domain (fusion partner); His tag (C); made in house; host or cells: baculovirus / Tn5 insect cells
Put plainly: PI3K KinaseGlo assay, PI3Kbeta. The following applies: 1 μM ATP, 25 nM enzyme, 30 mins.

The target in assay [4] is T4, PI3Kdelta (Homo sapiens, UniProt O00329).
T4 construct: for the full-length p110δ subunit were generated and fused by overlapping PCR; His tag (C); made in house; host or cells: baculovirus / Tn5 insect cells
T4 sequence (O00329 with tags, fused parts or gaps): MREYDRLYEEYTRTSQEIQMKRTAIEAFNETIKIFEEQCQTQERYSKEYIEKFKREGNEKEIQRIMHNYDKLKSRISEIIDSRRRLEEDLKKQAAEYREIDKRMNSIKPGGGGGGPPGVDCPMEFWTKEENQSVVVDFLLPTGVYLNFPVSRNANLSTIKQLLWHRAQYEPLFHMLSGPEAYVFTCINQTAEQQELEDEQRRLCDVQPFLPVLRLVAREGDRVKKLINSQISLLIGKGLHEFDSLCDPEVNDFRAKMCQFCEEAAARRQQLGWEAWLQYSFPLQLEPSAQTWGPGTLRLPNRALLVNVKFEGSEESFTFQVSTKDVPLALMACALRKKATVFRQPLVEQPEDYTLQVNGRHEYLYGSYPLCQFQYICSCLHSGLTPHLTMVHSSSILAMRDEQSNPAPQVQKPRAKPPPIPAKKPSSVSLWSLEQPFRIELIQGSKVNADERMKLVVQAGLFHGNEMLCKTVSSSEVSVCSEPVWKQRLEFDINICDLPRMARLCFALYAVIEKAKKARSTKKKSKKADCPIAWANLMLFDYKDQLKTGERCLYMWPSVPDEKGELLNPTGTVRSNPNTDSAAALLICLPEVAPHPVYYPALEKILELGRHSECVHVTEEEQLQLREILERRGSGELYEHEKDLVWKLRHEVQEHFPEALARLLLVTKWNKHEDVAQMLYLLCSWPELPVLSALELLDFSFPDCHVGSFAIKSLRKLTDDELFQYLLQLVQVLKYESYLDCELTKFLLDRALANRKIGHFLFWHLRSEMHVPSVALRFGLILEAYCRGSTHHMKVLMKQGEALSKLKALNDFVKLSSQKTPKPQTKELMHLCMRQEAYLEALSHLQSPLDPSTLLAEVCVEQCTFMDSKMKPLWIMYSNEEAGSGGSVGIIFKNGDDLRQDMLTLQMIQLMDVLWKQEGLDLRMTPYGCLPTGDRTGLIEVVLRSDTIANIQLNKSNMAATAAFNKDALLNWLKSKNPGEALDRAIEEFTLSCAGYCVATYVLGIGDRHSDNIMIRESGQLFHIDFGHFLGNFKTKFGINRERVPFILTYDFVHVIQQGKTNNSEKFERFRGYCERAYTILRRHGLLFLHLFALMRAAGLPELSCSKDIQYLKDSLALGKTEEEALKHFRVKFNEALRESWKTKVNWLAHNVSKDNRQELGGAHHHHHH
Briefly: PI3K KinaseGlo assay, PI3Kdelta. The following applies: 1 μM ATP, 10 nM enzyme, 30 mins.

T3 sequence (P42338 with tags, fused parts or gaps limits assumed): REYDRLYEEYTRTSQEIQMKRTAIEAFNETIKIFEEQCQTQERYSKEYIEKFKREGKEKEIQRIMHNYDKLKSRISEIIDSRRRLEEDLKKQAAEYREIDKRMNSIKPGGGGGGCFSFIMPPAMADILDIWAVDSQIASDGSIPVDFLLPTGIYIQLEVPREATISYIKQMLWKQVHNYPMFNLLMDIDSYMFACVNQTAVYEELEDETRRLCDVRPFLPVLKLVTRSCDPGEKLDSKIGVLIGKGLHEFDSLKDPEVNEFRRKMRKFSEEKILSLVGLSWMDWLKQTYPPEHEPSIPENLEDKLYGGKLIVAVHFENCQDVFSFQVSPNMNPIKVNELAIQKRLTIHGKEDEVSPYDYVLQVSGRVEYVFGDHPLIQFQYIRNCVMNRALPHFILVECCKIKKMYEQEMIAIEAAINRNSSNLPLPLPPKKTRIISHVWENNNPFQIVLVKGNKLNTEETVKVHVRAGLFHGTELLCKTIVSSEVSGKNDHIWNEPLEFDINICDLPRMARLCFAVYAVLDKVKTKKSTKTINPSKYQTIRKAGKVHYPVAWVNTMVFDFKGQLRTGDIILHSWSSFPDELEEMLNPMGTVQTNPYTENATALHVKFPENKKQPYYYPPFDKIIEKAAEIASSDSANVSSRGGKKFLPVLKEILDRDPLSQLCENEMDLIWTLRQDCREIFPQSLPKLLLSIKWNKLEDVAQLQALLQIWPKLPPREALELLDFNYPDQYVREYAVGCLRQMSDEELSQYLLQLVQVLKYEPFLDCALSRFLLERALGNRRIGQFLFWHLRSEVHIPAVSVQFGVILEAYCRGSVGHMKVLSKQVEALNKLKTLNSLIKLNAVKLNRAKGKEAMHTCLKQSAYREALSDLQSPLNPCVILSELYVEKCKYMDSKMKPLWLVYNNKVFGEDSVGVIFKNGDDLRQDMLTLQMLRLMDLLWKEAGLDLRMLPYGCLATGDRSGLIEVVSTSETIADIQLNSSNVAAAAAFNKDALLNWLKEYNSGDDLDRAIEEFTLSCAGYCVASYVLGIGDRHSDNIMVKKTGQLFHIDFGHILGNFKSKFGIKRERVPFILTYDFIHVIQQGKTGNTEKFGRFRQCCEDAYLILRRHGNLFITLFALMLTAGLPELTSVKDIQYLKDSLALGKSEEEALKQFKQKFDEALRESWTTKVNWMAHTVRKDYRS
T2 sequence (P48736 with tags, fused parts or gaps Q459R): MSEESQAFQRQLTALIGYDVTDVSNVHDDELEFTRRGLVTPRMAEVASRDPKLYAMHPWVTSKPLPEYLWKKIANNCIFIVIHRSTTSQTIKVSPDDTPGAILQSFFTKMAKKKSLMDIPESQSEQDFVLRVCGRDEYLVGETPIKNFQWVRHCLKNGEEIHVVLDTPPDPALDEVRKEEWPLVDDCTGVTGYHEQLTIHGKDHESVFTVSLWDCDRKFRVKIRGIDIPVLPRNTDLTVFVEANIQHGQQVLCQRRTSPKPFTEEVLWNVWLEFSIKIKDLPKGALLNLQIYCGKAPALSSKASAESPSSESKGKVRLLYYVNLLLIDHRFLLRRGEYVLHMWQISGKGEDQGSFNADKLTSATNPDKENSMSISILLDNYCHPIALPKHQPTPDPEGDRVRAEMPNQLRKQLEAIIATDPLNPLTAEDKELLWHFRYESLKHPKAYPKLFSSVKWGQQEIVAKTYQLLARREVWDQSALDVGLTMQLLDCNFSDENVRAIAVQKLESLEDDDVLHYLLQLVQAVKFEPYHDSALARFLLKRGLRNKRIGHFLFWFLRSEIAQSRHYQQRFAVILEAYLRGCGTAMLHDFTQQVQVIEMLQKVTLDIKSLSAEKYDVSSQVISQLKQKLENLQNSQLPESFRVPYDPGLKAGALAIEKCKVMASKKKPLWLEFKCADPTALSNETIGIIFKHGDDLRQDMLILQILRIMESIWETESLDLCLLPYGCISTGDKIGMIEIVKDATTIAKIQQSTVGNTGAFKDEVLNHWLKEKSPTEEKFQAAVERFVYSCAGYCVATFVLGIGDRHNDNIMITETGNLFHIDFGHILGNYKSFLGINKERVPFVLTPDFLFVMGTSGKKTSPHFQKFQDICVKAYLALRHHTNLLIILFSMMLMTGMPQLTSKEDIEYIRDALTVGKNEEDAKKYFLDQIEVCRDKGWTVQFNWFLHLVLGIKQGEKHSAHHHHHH
T1 sequence (P42336 with tags, fused parts or gaps): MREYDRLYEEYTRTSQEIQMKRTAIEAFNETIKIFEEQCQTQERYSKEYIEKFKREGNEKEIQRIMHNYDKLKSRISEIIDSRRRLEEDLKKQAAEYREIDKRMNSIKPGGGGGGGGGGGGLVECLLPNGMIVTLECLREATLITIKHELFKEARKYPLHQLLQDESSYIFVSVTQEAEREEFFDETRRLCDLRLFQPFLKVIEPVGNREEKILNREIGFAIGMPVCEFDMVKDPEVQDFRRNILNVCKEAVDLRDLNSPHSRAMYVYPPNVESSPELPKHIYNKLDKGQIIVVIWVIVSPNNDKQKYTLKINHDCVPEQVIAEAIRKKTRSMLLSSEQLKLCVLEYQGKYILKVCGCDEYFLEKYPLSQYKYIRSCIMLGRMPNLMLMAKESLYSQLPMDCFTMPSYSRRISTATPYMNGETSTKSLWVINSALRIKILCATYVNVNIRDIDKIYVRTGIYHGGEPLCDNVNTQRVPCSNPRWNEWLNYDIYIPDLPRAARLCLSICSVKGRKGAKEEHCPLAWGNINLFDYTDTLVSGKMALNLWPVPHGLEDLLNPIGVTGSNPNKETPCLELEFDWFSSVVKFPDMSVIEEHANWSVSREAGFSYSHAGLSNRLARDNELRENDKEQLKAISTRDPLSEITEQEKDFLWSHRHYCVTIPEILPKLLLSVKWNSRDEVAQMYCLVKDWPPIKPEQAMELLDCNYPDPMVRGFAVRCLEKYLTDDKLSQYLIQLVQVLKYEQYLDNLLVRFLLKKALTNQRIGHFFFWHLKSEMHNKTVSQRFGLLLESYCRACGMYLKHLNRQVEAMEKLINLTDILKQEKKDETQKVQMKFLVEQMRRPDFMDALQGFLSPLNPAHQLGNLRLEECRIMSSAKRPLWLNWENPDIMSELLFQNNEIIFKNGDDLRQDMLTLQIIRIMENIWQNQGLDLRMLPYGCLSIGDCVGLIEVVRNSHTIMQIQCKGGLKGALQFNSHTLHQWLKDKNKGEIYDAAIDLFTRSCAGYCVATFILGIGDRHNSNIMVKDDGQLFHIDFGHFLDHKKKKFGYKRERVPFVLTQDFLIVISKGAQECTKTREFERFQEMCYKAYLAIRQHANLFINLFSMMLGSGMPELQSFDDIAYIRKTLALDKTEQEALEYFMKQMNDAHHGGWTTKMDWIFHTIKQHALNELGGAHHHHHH

A word on the IC50: it is the point on the concentration scale where inhibition reaches its midpoint. For `Cc1nc(NC(=O)N2CCC[C@@]2(C)C(N)=O)sc1-c1csc(CC2CC2)n1` [Example 49, (S)-2-Methyl-pyrrolidine-1,2-dicarboxylic acid 2-amide 1-[(2-cyclopropylmethyl-4′-methyl-[4,5]bithiazolyl-2′-yl)-amide]], the IC50 in assay [1] amounted to 78 nM; in assay [2], 928 nM; in assay [3], 885 nM; in assay [4], 1260 nM.
Take `Cc1nc(NC(=O)N2CCC2C(N)=O)sc1-c1csc(C(C)(C)C)n1` (stereo not drawn) [Example 13, Azetidine-1,2-dicarboxylic acid 2-amide 1-[(2-tert-butyl-4′-methyl-[4,5]bithiazolyl-2′-yl)-amide]]: the IC50 in assay [1] was found to be 54 nM; in assay [2], 2510 nM; in assay [3], 6860 nM; in assay [4], 622 nM.
Turning to `Cc1nc(NC(=O)N2CCC[C@H]2C(N)=O)sc1-c1csc(N2CC3CCC(CC3)C2)n1` [Example 23, (S)-Pyrrolidine-1,2-dicarboxylic acid 2-amide 1-{[2-(3-aza-bicyclo[3.2.2]non-3-yl)-4′-methyl-[4,5]bithiazolyl-2′-yl]-amide}], the IC50 in assay [1] was 331 nM; in assay [2], 1640 nM; in assay [3], 8470 nM; in assay [4], 2370 nM.

Source of the values: patent publication US20100298286A1, “Organic Compounds” (NOVARTIS AG, priority 2007, published 2010).
